pIC50, pKi: −log10 of the molar value. Like-named read-outs stand apart in the source and are kept apart here.
Columns and labels:
calpain-I [1] = target: T1, calpain-I (Sus scrofa, UniProt P35750); assay: FRET-based calpain-I inhibition assay in the presence and absence of 10 mM DTT; type: biochemical, porcine
T1 construct: purchased CalBiochem
T1 sequence (P35750 1-714): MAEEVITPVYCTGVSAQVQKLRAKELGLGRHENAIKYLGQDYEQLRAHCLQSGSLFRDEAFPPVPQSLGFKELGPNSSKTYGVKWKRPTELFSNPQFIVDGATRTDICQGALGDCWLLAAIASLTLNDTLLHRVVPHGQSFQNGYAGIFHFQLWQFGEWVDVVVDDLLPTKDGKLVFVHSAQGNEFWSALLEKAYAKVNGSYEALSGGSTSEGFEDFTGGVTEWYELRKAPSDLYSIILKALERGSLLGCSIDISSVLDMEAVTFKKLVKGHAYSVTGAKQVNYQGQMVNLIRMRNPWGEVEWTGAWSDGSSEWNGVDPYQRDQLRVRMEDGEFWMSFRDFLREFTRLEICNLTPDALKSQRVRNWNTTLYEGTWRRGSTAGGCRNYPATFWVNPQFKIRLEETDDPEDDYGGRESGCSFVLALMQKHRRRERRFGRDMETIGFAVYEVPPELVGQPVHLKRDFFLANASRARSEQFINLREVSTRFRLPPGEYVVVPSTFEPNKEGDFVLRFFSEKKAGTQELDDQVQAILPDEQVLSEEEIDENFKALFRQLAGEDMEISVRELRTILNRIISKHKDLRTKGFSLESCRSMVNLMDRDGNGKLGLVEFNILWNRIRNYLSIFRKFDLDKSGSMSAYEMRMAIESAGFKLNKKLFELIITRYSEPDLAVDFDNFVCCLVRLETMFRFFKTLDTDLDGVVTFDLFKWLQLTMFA
T1 sequence (P04574 1-266): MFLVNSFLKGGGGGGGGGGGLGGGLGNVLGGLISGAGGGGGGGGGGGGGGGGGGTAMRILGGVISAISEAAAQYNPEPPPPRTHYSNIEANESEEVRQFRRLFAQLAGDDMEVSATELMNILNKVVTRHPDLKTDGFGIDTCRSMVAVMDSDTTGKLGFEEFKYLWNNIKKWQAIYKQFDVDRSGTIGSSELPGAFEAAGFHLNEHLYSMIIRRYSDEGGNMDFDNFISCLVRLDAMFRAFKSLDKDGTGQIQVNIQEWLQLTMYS
Protocol: The inhibitory properties of a series of oxidised and reduced α-mercaptoacrylic acid derivatives towards calpain-I (Fig. 4) were assessed in a FRET-based assay in the presence and absence of 10 mM dithiothreitol (DTT).[24],[25] To ensure complete oxidation, compounds were left in the assay solution for 3 hours prior to performing the assay (vide supra and ESI ^†). In the absence of inhibitors there was no observable difference in enzyme activity when assayed under both oxidising and reducing conditions.
Protein Expression, Crystallisation and FRET Based Inhibition Assay Methods […]
FRET based Inhibition Assay
This assay employed a peptide from the calpain-1 substrate α-spectrin, with fluorescein at one terminus internally quenched by DABCYL and the other (H2N-K(FAM)-EVYGMMK(DABCYL)-OH).11 Cleavage by calpain-1 occurs between the Tyr-Gly residues and results in enhanced fluorescence as the quenching effect is relieved. The assays were performed using purified porcine Calpain-1 (CalBiochem, 10 nM) and fluorogenic calpain-1 substrate (Merck, 1 µM) in an assay buffer consisting of HEPES (10 mM) pH 6.8; EDTA (0.5 mM); bovine serum albumin (0.1%). The assay was performed using a fluorescent plate reader (BMG Optistar) in an assay volume of 100 µl at a temperature of 37°C, using an excitation band pass filter centred at 485 nm and emission detected at 520 nm. The compounds to be tested for inhibition were added to the assay mixture before the reaction was initated by the addition of CaCl2 (5 mM).
None of the compounds had significant fluorescence at this wavelength and correction for this was unnecessary. The compounds were dissolved in DMSO at 50 mM and diluted into assay buffer to give range of concentrations from 5 nM to 50 µM. In each assay run, the effect of DMSO alone over the concentration used was also measured. Although there was no effect of DM SO at lower concentrations, in some assay runs, DM SO at 0.005%-0.5% produced some inhibitory effect. This DM SO effect (which was only relevant for compounds with poor inhibitory ability) was subtracted before constructing the inhibition curves.
FRET based inhibition assay (DTT addition)
The same procedure was used as described above except with assay buffer containing HEPES (10 mM) pH 6.8; EDTA (0.5 mM); bovine serum albumin (0.1%) and DTT (10 mM).

Calpain-I [2] = target: Calpain-I; design: method as in PMID 8692879; conditions: cited from earlier work
Calpain-II = target: Calpain-II; design: method as in PMID 8692879; conditions: cited from earlier work
[3] = Oxidation of sulfhydryl to disulfide in solution (UV-VIS / 1H-NMR); type: physicochemical
Protocol: The rate of conversion of 3 to its disulfide form was dependent upon both the concentration of the compound and the nature of the solution. […] […] Compound 4 was then added to preformed crystals of PEF(S).

[4] = absence of DTT (disulfide form), read-out: IC50 of oxidised compounds
[5] = absence of DTT (oxidised disulfide form), compounds left 3 hours in assay solution before the assay, read-out: IC50, Disulfide
[6] = thioethers, no DTT, read-out: IC50 (No DTT)
[7] = thioethers, DTT had no effect on the potency, read-out: IC50
[8] = presence of 10 mM DTT (reduced sulfhydryl form), read-out: IC50, Sulfhydryl
[9] = thioethers, 10 mM DTT, read-out: IC50 (DTT)

| pIC50 (calpain-I [1]; [5]) | pIC50 (calpain-I [1]; [8]) | SMILES | other results |
| --- | --- | --- | --- |
|  |  | O=C(O)/C(=C/c1cccc(I)c1)SS/C(=C\c1cccc(I)c1)C(=O)O [compound 17] | pIC50 (calpain-I [1]; [4]): 7.60 |
| 7.30 |  | O=C(O)/C(=C/c1ccc(F)cc1)SS/C(=C\c1ccc(F)cc1)C(=O)O [compound 19] |  |
| 7.64 |  | O=C(O)/C(=C/c1c[nH]c2c(Cl)cccc12)SS/C(=C\c1c[nH]c2c(Cl)cccc12)C(=O)O [compound 37] |  |
|  |  | O=C(O)/C(=C/c1cccc(Cl)c1)CS/C(=C\c1c[nH]c2ccc(Br)cc12)C(=O)O [compound 42, (Z)-3-(5-bromoindol-3-yl)-2-(((Z)-2-carboxy-3-(3-chlorophenyl)allyl)thio)acrylic acid] | pIC50 (calpain-I [1]; [6]): 5.70; pIC50 (calpain-I [1]; [7]): 5.74 |
| 8.00 |  | O=C(O)/C(=C/c1c[nH]c2cc(I)ccc12)SS/C(=C\c1c[nH]c2cc(I)ccc12)C(=O)O [compound 35] |  |
| 7.82 |  | O=C(O)/C(=C/c1c[nH]c2ccc(I)cc12)SS/C(=C\c1c[nH]c2ccc(I)cc12)C(=O)O [compound 29] |  |
|  | 5.82 | O=C(O)/C(S)=C/c1c[nH]c2ccc(Cl)cc12 [compound 24] |  |
|  |  | O=C(O)/C(S)=C/c1ccc(I)cc1 [PD150606] | pKi (Calpain-I [2]): 6.68; pKi (Calpain-II): 6.43 |
|  |  | O=C(O)/C(=C/c1ccc(Br)cc1)CS/C(=C\c1c[nH]c2cc(Br)ccc12)C(=O)O [compound 43, (Z)-3-(6-bromoindol-3-yl)-2-(((Z)-3-(4-bromophenyl)-2-carboxyallyl)thio)acrylic acid] | pIC50 (calpain-I [1]; [9]): 5.00; pIC50 (calpain-I [1]; [6]): 5.00 |
|  | 4.30 | O=C(O)/C(S)=C/c1cccc(F)c1 [compound 11] |  |
|  |  | O=C(O)/C(S)=C/c1c[nH]c2ccc(F)cc12 [PD151746] | pKi (Calpain-I [2]): 6.59; pKi (Calpain-II): 5.27 |
| 7.19 |  | O=C(O)/C(=C/c1ccccc1F)SS/C(=C\c1ccccc1F)C(=O)O [compound 6] |  |
|  | 4.30 | O=C(O)/C(S)=C/c1ccccc1Br [compound 9] |  |
|  |  | O=C(O)/C(=C/c1c[nH]c2cc(Br)ccc12)SS/C(=C\c1c[nH]c2cc(Br)ccc12)C(=O)O [compound 4, (2Z,2′Z)-2,2′-disulfanediylbis(3-(6-bromoindol-3-yl)acrylic acid)] | pIC50 (calpain-I [1]; disulfide prepared by iodine mediated oxidation and in situ prior to the assay, read-out: IC50 (dose response curve, Figure S8)): 6.70 |
| 7.70 |  | O=C(O)/C(=C/c1c[nH]c2c(I)cccc12)SS/C(=C\c1c[nH]c2c(I)cccc12)C(=O)O [compound 39] |  |
| 7.74 |  | O=C(O)/C(=C/c1c[nH]c2ccc(Cl)cc12)SS/C(=C\c1c[nH]c2ccc(Cl)cc12)C(=O)O [compound 25] |  |
|  | 6.30 | O=C(O)/C(S)=C/c1c[nH]c2cc(I)ccc12 [compound 34] |  |

| pIC50 (calpain-I [1]; [5]) | pIC50 (calpain-I [1]; [8]) | SMILES | other results |
| --- | --- | --- | --- |
| 7.55 |  | O=C(O)/C(=C/c1c[nH]c2cc(Cl)ccc12)SS/C(=C\c1c[nH]c2cc(Cl)ccc12)C(=O)O [compound 31] |  |
| 6.60 |  | O=C(O)/C(=C/c1ccccc1Br)SS/C(=C\c1ccccc1Br)C(=O)O [compound 10] |  |
|  | 4.30 | O=C(O)/C(S)=C/c1ccccc1F [compound 5] |  |
|  | 5.40 | O=C(O)/C(S)=C/c1c[nH]c2c(Cl)cccc12 [compound 36] |  |
|  | 5.70 | O=C(O)/C(S)=C/c1c[nH]c2c(I)cccc12 [compound 38] |  |
|  |  | O=C(O)/C(=C/c1cccc(Cl)c1)CS/C(=C\c1ccc(Cl)cc1)C(=O)O [compound 41, (Z)-3-(3-chlorophenyl)-2-((((Z)-2-(4-chlorophenyl)-1-carboxyvinyl)thio)methyl)acrylic acid] | pIC50 (calpain-I [1]; [9]): < 4.00; pIC50 (calpain-I [1]; [6]): < 4.00; pIC50 (calpain-I [1]; [7]): < 4.00 |
|  |  | O=C(O)/C(=C/c1ccc(Br)cc1)CS/C(=C\c1ccc(Br)cc1)C(=O)O [compound 40, (Z)-3-(4-Bromophenyl)-2-((((Z)-2-(4-bromophenyl)-1-carboxyvinyl)thio)methyl)acrylic acid] | pIC50 (calpain-I [1]; [9]): 5.00; pIC50 (calpain-I [1]; [6]): 5.00 |
|  | 6.00 | O=C(O)/C(S)=C/c1c[nH]c2cc(Cl)ccc12 [compound 30] |  |
|  | 4.22 | O=C(O)/C(S)=C/c1ccccc1Cl [compound 7] |  |
| 8.00 |  | O=C(O)/C(=C/c1c[nH]c2ccc(Br)cc12)SS/C(=C\c1c[nH]c2ccc(Br)cc12)C(=O)O [compound 27] |  |
|  | 4.30 | O=C(O)/C(S)=C/c1ccc(F)cc1 [compound 18] |  |
|  |  | O=C(O)/C(=C/c1ccc(I)cc1)SS/C(=C\c1ccc(I)cc1)C(=O)O [compound 23] | pIC50 (calpain-I [1]; [4]): 8.12 |
| 8.00 |  | O=C(O)/C(=C/c1ccc(Cl)cc1)SS/C(=C\c1ccc(Cl)cc1)C(=O)O [compound 21] |  |
|  | 6.30 | O=C(O)/C(S)=C/c1c[nH]c2cc(Br)ccc12 [compound 3, (Z)-3-(6-bromoindole-3-yl)-2-mercaptoacrylic acid] | time to complete conversion to oxidised (disulfide) form ([3]; 100 μM in 100 mM KiPO4, pH 7.0, room temperature, UV-VIS): 3 h; time after which oxidation was complete ([3]; 50 mM in DMSO, room temperature, 1H-NMR): 24 h |
|  | 6.30 | O=C(O)/C(S)=C/c1c[nH]c2ccc(I)cc12 [compound 28] |  |
|  | 5.52 | O=C(O)/C(S)=C/c1cccc(I)c1 [compound 16] |  |
|  | 6.30 | O=C(O)/C(S)=C/c1c[nH]c2ccc(Br)cc12 [compound 26] |  |
